From ChEMBL document CHEMBL5143602, “Design, synthesis and antibacterial evaluation of pleuromutilin derivatives” (Bioorg Med Chem, 2022)
Values after ≈ are worked out from the molar mass of the structure shown.

Columns and labels:
[1] = tested on: MCF7; assay: Cytotoxicity against human MCF7 cells assessed as cell growth inhibition measured after 72 hrs by MTT assay; type: functional, cell-based; details: MCF7, 72 h
[2] = tested on: U-87 MG; assay: Cytotoxicity against human U87 cells assessed as cell growth inhibition measured after 72 hrs by MTT assay; type: functional, cell-based, U-87MG ATCC
[3] = tested on: Staphylococcus epidermidis; assay: Antibacterial activity against Staphylococcus epidermidis ATCC12228 assessed as inhibition of bacterial growth incubated for 18 hrs by two-fold serial dilution method; type: functional
[4] = tested on: HT-29; assay: Cytotoxicity against human HT-29 cells assessed as cell growth inhibition measured after 72 hrs by MTT assay; type: functional, cell-based; details: HT-29, 72 h
[5] = tested on: Mycoplasmoides pneumoniae; assay: Antibacterial activity against Mycoplasma pneumoniae ATCC15531 assessed as inhibition of bacterial growth incubated for 18 hrs by two-fold serial dilution method; type: functional
[6] = tested on: HepG2; assay: Cytotoxicity against human HepG2 cells assessed as cell growth inhibition measured after 72 hrs by MTT assay; type: functional, cell-based; details: HepG2, 72 h
[7] = tested on: Mycoplasmoides pneumoniae; assay: Antibacterial activity against Mycoplasma pneumoniae ATCC29342 assessed as inhibition of bacterial growth incubated for 18 hrs by two-fold serial dilution method; type: functional
[8] = tested on: Enterococcus faecium; assay: Antibacterial activity against Enterococcus faecium ATCC19434 assessed as inhibition of bacterial growth incubated for 18 hrs by two-fold serial dilution method; type: functional
[9] = tested on: HGC-27; assay: Cytotoxicity against human HGC-27 cells assessed as cell growth inhibition measured after 72 hrs by MTT assay; type: functional, cell-based; details: HGC-27, 72 h
[10] = tested on: Staphylococcus aureus; assay: Antibacterial activity against methicillin-resistant Staphylococcus aureus ATCC 43300 assessed as inhibition of bacterial growth incubated for 18 hrs by two-fold serial dilution method; type: functional
[11] = tested on: Mycoplasmoides pneumoniae; assay: Antibacterial activity against drug resistant Mycoplasma pneumoniae assessed as inhibition of bacterial growth incubated for 18 hrs by two-fold serial dilution method; type: functional
[12] = tested on: Staphylococcus aureus; assay: Antibacterial activity against methicillin-sensitive Staphylococcus aureus ATCC 29213 assessed as inhibition of bacterial growth incubated for 18 hrs by two-fold serial dilution method; type: functional

Structure (SMILES) | IC50 [1] [µM] | IC50 [2] [µM] | MIC [3] [µg/mL] | IC50 [4] [µM] | MIC [5] [µg/mL] | IC50 [6] [µM] | MIC [7] [µg/mL] | MIC [8] [µg/mL] | IC50 [9] [µM] | MIC [10] [µg/mL] | MIC [11] [µg/mL] | MIC [12] [µg/mL]
C=C[C@]1(C)C[C@@H](OC(=O)CNC(=O)Nc2ccc(Br)cc2)[C@]2(C)[C@H](C)CC[C@]3(CCC(=O)[C@H]32)[C@@H](C)[C@@H]1O | > 10 | > 10 | > 64 | > 10 | 1 (≈ 1.74 µM) | > 10 | 0.5 (≈ 0.869 µM) | 8 (≈ 13.9 µM) | > 10 |  |  | 
C=C[C@]1(C)C[C@@H](OC(=O)CNC(=O)NC(=O)c2ccccc2F)[C@]2(C)[C@H](C)CC[C@]3(CCC(=O)[C@H]32)[C@@H](C)[C@@H]1O |  |  | > 64 |  | 1 (≈ 1.84 µM) |  | > 8 | 8 (≈ 14.7 µM) |  | 0.5 (≈ 0.921 µM) | 2 (≈ 3.69 µM) | 0.5 (≈ 0.921 µM)
C=C[C@]1(C)C[C@@H](OC(=O)CNC(=S)Nc2ccc(C(F)(F)F)cc2)[C@]2(C)[C@H](C)CC[C@]3(CCC(=O)[C@H]32)[C@@H](C)[C@@H]1O |  |  | > 64 |  |  |  |  | 8 (≈ 13.8 µM) |  | 1 (≈ 1.72 µM) |  | 1 (≈ 1.72 µM)
C=C[C@]1(C)C[C@@H](OC(=O)CNC(=O)NCCC)[C@]2(C)[C@H](C)CC[C@]3(CCC(=O)[C@H]32)[C@@H](C)[C@@H]1O |  |  | > 64 |  |  |  |  | 32 (≈ 69.2 µM) |  | 2 (≈ 4.32 µM) |  | 2 (≈ 4.32 µM)
C=C[C@]1(C)C[C@@H](OC(=O)CNC(=O)Nc2cccc3ccccc23)[C@]2(C)[C@H](C)CC[C@]3(CCC(=O)[C@H]32)[C@@H](C)[C@@H]1O |  |  | > 64 |  |  |  |  | 16 (≈ 29.3 µM) |  | 2 (≈ 3.66 µM) |  | 2 (≈ 3.66 µM)
C=C[C@]1(C)C[C@@H](OC(=O)CNC(=S)NC2CCCCC2)[C@]2(C)[C@H](C)CC[C@]3(CCC(=O)[C@H]32)[C@@H](C)[C@@H]1O |  |  | > 64 |  |  |  |  | 32 (≈ 61.7 µM) |  | 1 (≈ 1.93 µM) |  | 1 (≈ 1.93 µM)
C=C[C@]1(C)C[C@@H](OC(=O)CNC(=O)NC(=O)c2cccc(F)c2)[C@]2(C)[C@H](C)CC[C@]3(CCC(=O)[C@H]32)[C@@H](C)[C@@H]1O | > 10 | > 10 | > 64 | > 10 |  | > 10 |  | 16 (≈ 29.5 µM) | > 10 | 0.25 (≈ 0.461 µM) |  | 0.5 (≈ 0.921 µM)
C=C[C@]1(C)C[C@@H](OC(=O)CNC(=S)Nc2ccc(OC)cc2)[C@]2(C)[C@H](C)CC[C@]3(CCC(=O)[C@H]32)[C@@H](C)[C@@H]1O |  |  | > 64 |  |  |  |  | 16 (≈ 29.5 µM) |  | 0.5 (≈ 0.921 µM) |  | 1 (≈ 1.84 µM)
C=C[C@]1(C)C[C@@H](OC(=O)CNC(=O)Nc2ccccc2Cl)[C@]2(C)[C@H](C)CC[C@]3(CCC(=O)[C@H]32)[C@@H](C)[C@@H]1O |  |  | > 64 |  |  |  |  | 8 (≈ 15.1 µM) |  | 0.5 (≈ 0.941 µM) |  | 0.5 (≈ 0.941 µM)
C=C[C@]1(C)C[C@@H](OC(=O)CNC(=O)Nc2ccc(Cl)cc2)[C@]2(C)[C@H](C)CC[C@]3(CCC(=O)[C@H]32)[C@@H](C)[C@@H]1O | > 10 | > 10 | > 64 | > 10 |  | > 10 |  | 16 (≈ 30.1 µM) | > 10 | 0.25 (≈ 0.471 µM) |  | 0.25 (≈ 0.471 µM)
C=C[C@]1(C)C[C@@H](OC(=O)CNC(=O)Nc2cc(Cl)cc(Cl)c2)[C@]2(C)[C@H](C)CC[C@]3(CCC(=O)[C@H]32)[C@@H](C)[C@@H]1O |  |  | > 64 |  |  |  |  | 32 (≈ 56.6 µM) |  | 0.5 (≈ 0.884 µM) |  | 0.5 (≈ 0.884 µM)
C=C[C@]1(C)C[C@@H](OC(=O)CNC(=O)NCC)[C@]2(C)[C@H](C)CC[C@]3(CCC(=O)[C@H]32)[C@@H](C)[C@@H]1O |  |  | > 64 |  |  |  |  | 32 (≈ 71.3 µM) |  | 2 (≈ 4.46 µM) |  | 2 (≈ 4.46 µM)
C=C[C@]1(C)C[C@@H](OC(=O)CNC(=S)NC(=O)c2ccccc2)[C@]2(C)[C@H](C)CC[C@]3(CCC(=O)[C@H]32)[C@@H](C)[C@@H]1O |  |  | > 64 |  |  |  |  | 32 (≈ 59.2 µM) |  | > 64 |  | > 64
C=C[C@]1(C)C[C@@H](OC(=O)CNC(=O)Nc2ccccc2-c2ccccc2)[C@]2(C)[C@H](C)CC[C@]3(CCC(=O)[C@H]32)[C@@H](C)[C@@H]1O |  |  | > 64 |  |  |  |  | 32 (≈ 55.9 µM) |  | 4 (≈ 6.98 µM) |  | 4 (≈ 6.98 µM)
C=C[C@]1(C)C[C@@H](OC(=O)CNC(=S)Nc2ccc(F)cc2)[C@]2(C)[C@H](C)CC[C@]3(CCC(=O)[C@H]32)[C@@H](C)[C@@H]1O |  |  | > 64 |  |  |  |  | 16 (≈ 30.1 µM) |  | 0.25 (≈ 0.471 µM) |  | 1 (≈ 1.88 µM)
C=C[C@]1(C)C[C@@H](OC(=O)CNC(=O)NC2CCCCC2)[C@]2(C)[C@H](C)CC[C@]3(CCC(=O)[C@H]32)[C@@H](C)[C@@H]1O |  |  | > 64 |  |  |  |  | 8 (≈ 15.9 µM) |  | 2 (≈ 3.98 µM) |  | 2 (≈ 3.98 µM)
C=C[C@]1(C)C[C@@H](OC(=O)CNC(=S)Nc2ccccc2C)[C@]2(C)[C@H](C)CC[C@]3(CCC(=O)[C@H]32)[C@@H](C)[C@@H]1O |  |  | > 64 |  |  |  |  | 16 (≈ 30.4 µM) |  | 2 (≈ 3.8 µM) |  | 4 (≈ 7.59 µM)
C=C[C@]1(C)C[C@@H](OC(=O)CNC(=S)NC(C)=O)[C@]2(C)[C@H](C)CC[C@]3(CCC(=O)[C@H]32)[C@@H](C)[C@@H]1O |  |  | > 64 |  |  |  |  | 16 (≈ 33.4 µM) |  | 2 (≈ 4.18 µM) |  | 2 (≈ 4.18 µM)
C=C[C@]1(C)C[C@@H](OC(=O)CNC(=S)Nc2ccccc2)[C@]2(C)[C@H](C)CC[C@]3(CCC(=O)[C@H]32)[C@@H](C)[C@@H]1O |  |  | > 64 |  |  |  |  | 16 (≈ 31.2 µM) |  | 1 (≈ 1.95 µM) |  | 1 (≈ 1.95 µM)
C=C[C@]1(C)C[C@@H](OC(=O)CNC(=S)NC(=O)c2ccc(Cl)cc2)[C@]2(C)[C@H](C)CC[C@]3(CCC(=O)[C@H]32)[C@@H](C)[C@@H]1O |  |  | > 64 |  |  |  |  | 8 (≈ 13.9 µM) |  | 16 (≈ 27.8 µM) |  | 16 (≈ 27.8 µM)
C=C[C@]1(C)C[C@@H](OC(=O)CNC(=O)Nc2cccc(Cl)c2)[C@]2(C)[C@H](C)CC[C@]3(CCC(=O)[C@H]32)[C@@H](C)[C@@H]1O |  |  | > 64 |  |  |  |  | 8 (≈ 15.1 µM) |  | 0.5 (≈ 0.941 µM) |  | 1 (≈ 1.88 µM)
C=C[C@]1(C)C[C@@H](OC(=O)CNC(=O)Nc2cccc(C)c2)[C@]2(C)[C@H](C)CC[C@]3(CCC(=O)[C@H]32)[C@@H](C)[C@@H]1O |  |  | > 64 |  |  |  |  | 16 (≈ 31.3 µM) |  | 0.5 (≈ 0.979 µM) |  | 0.125 (≈ 0.245 µM)
C=C[C@]1(C)C[C@@H](OC(=O)CNC(=S)Nc2ccc3ccccc3c2)[C@]2(C)[C@H](C)CC[C@]3(CCC(=O)[C@H]32)[C@@H](C)[C@@H]1O |  |  | > 64 |  |  |  |  | 32 (≈ 56.9 µM) |  | 4 (≈ 7.11 µM) |  | 16 (≈ 28.4 µM)
C=C[C@]1(C)C[C@@H](OC(=O)CNC(=S)NC(=O)c2ccc(Br)cc2)[C@]2(C)[C@H](C)CC[C@]3(CCC(=O)[C@H]32)[C@@H](C)[C@@H]1O |  |  | > 64 |  |  |  |  | 16 (≈ 25.8 µM) |  | 16 (≈ 25.8 µM) |  | 16 (≈ 25.8 µM)
C=C[C@]1(C)C[C@@H](OC(=O)CNC(=O)Nc2ccccc2)[C@]2(C)[C@H](C)CC[C@]3(CCC(=O)[C@H]32)[C@@H](C)[C@@H]1O |  |  | > 64 |  |  |  |  | 32 (≈ 64.4 µM) |  | 0.5 (≈ 1.01 µM) |  | 0.5 (≈ 1.01 µM)
C=C[C@]1(C)C[C@@H](OC(=O)CNC(=S)NC(=O)c2ccc(F)cc2)[C@]2(C)[C@H](C)CC[C@]3(CCC(=O)[C@H]32)[C@@H](C)[C@@H]1O |  |  | > 64 |  |  |  |  | 8 (≈ 14.3 µM) |  | 4 (≈ 7.16 µM) |  | 4 (≈ 7.16 µM)
C=C[C@]1(C)C[C@@H](OC(=O)CNC(=S)NCCCCCCCCCCCCCCCCCC)[C@]2(C)[C@H](C)CC[C@]3(CCC(=O)[C@H]32)[C@@H](C)[C@@H]1O |  |  | > 64 |  |  |  |  | 32 (≈ 46.4 µM) |  | 2 (≈ 2.9 µM) |  | 4 (≈ 5.8 µM)
